In test [1] the target is CDK1/cyclin B (Homo sapiens (Human), UniProt P06493). Description: CDK1/cyclin B enzymatic activity assay (IMAP-FP). It counts as biochemical. The source says: CDK1/Cyclin B Enzymatic Activity Assay
A 384-well microtiter IMAP-FP™ (Molecular Devices Trade Mark Technology) endpoint assay was used for CDK1/cyclin B kinase activity measurements. The same assay was used for IC50 determination of small molecule inhibitors.

The target in test [2] is CDK4/cyclin D1 (Homo sapiens (Human), UniProt P11802). Description: CDK4/cyclin D1 enzymatic activity assay (TR-FRET, phosphorylation of pRb at Ser780). It counts as biochemical. The gist of the method:
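Phosphorylation at pRb Ser780, detected by TR-FRET, gave IC50s and kinetics. Enzyme: baculovirus/Sf21-expressed human CDK4/cyclin D1. ATP at 3 μM initiated the reaction; EDTA (pH 8.0) stopped it after 60 min at 22° C.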
A general note: Time-resolved FRET reads energy transfer from a long-lived donor to a nearby acceptor.

Test [3] concerns phosphorylation of pRb at the Ser780 site in JeKo-1 mantle cell lymphoma cells. Description: CDK4 cellular assay: ELISA of pRb phosphorylation at Ser780 in JeKo-1 cells. It is filed as cell-based. In general terms: An ELISA detects its analyte on a solid surface through an enzyme-linked reagent.
[4] abbreviates: […] CDK1/cyclin B, 100 nM Tamra Histone-H1 peptide, 20 μM ATP, 120 min at room temperature, read-out: Biochemical CDK1 enzyme IC50.
[5] abbreviates: 0.3 nM CDK4/cyclin D1, 150 nM biotin-pRb (773-924), 3 μM ATP, 60 min at 22° C., read-out: Biochemical CDK4 enzyme IC50.
Where [6] appears, read: Homo sapiens, JeKo-1 cells, p-pRb % inhibition adjusted with total pRb levels, read-out: Normalized cellular ppRb inhibition IC50.
The mark [7] stands for this setting: Homo sapiens, JeKo-1 cells, p-pRb Ser780 ELISA, non-normalized, read-out: Cellular ppRb inhibition IC50.
Setting [8] is: Homo sapiens, JeKo-1, JeKo-1 cells, p-pRb % inhibition adjusted with total pRb levels, read-out: Normalized cellular ppRb inhibition IC50.
[9] abbreviates: Homo sapiens, JeKo-1, JeKo-1 cells, p-pRb Ser780 ELISA, non-normalized, read-out: Cellular ppRb inhibition IC50.
The mark [10] stands for this setting: 0.25 nM CDK1/cyclin B, 100 nM Tamra Histone-H1 peptide, 20 μM ATP, 120 min at room temperature, read-out: Biochemical CDK1 enzyme IC50.
Setting [11] is: JeKo-1 cells, p-pRb % inhibition adjusted with total pRb levels, read-out: Normalized cellular ppRb inhibition IC50.
[12] abbreviates: JeKo-1 cells, p-pRb Ser780 ELISA, non-normalized, read-out: Cellular ppRb inhibition IC50.

Like-named read-outs stand apart in the source and are kept apart here.

The term IC50 denotes the point on the concentration scale where inhibition reaches its midpoint.

Sequence of CDK1/cyclin B (P06493 whole entry, species assumed): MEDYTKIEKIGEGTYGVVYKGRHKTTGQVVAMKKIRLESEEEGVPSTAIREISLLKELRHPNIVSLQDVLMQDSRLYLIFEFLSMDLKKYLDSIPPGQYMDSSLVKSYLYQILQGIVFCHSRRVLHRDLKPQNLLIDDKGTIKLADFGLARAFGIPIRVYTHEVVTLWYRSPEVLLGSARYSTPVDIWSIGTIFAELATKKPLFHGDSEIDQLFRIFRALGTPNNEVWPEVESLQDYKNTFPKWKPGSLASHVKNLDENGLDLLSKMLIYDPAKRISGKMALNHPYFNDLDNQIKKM
Sequence of CDK1/cyclin B (P14635 whole entry partner, species assumed): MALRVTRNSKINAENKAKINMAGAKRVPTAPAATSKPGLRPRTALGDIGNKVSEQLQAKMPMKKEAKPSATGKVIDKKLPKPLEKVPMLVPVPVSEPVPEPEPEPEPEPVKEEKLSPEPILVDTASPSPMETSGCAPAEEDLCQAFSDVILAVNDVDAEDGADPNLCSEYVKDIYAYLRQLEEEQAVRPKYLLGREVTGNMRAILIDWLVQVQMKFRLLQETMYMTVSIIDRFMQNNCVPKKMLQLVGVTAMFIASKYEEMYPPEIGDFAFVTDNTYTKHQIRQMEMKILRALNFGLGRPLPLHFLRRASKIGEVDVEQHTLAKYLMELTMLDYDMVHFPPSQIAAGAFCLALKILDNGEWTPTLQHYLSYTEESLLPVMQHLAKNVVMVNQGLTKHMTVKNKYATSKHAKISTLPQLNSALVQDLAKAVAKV
Sequence of CDK4/cyclin D1 (P11802 whole entry): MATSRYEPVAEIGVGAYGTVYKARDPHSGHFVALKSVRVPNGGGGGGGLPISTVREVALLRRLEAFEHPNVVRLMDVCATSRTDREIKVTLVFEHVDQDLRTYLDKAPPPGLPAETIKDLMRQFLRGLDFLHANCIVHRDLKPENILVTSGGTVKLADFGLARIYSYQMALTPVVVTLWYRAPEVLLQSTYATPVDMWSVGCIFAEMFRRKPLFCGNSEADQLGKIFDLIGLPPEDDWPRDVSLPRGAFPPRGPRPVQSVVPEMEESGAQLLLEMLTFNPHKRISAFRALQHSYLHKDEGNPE
Sequence of CDK4/cyclin D1 (P24385 whole entry partner): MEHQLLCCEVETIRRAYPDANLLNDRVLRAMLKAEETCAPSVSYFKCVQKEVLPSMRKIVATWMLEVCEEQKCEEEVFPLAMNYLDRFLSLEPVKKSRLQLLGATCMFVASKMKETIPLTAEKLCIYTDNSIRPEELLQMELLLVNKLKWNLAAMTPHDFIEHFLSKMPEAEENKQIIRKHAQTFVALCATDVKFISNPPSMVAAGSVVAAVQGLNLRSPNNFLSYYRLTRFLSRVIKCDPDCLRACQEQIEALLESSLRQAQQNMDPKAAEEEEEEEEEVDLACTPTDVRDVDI

In the case of `CN(C)C(=O)c1cc2cnc(Nc3ccc(N4C[C@@H]5CNC[C@@H]5CC4=O)cn3)nc2n1C1CCCC1` (stereo in doubt) [Example 92, 7-cyclopentyl-N,N-dimethyl-2-(5-(cis-6-oxotetrahydro-1H-pyrrolo[3,4-c]pyridin-5(6H,7H,7aH)-yl)pyridin-2-ylamino)-7H-pyrrolo[2,3-d]pyrimidine-6-carboxamide], the IC50 in test [1] (setting [4]) was 25.1 µM; in test [2] (setting [5]), 0.005 to 0.007 µM; in test [3] (Homo sapiens, JeKo-1, read-out: Cellular ppRb inhibition IC50), 0.005 to 0.02 µM; in test [3] (Homo sapiens, JeKo-1, read-out: Normalized cellular ppRb inhibition IC50) it was 0.019 to 0.038 µM.

As to `CN(C)C(=O)c1cc2cnc(Nc3ccc(N4C[C@@H]5CNC[C@@H]5C4=O)cn3)nc2n1C1CCCCCC1` [Example 82, 7-cycloheptyl-N,N-dimethyl-2-(5-((3aS,6aR)-1-oxohexahydropyrrolo[3,4-c]pyrrol-2(1H)-yl)pyridin-2-ylamino)-7H-pyrrolo[2,3-d]pyrimidine-6-carboxamide], the IC50 in test [1] (setting [4]) is 2.66 µM; in test [2] (setting [5]), 0.004 µM; in test [3] (setting [6]), 0.009 µM; in test [3] (setting [7]) it was 0.005 µM.

With `CN(C)C(=O)c1cc2cnc(Nc3ccc(C(=O)N4CC5CCC(C4)N5)cn3)nc2n1C1C[C@H]2CC[C@@H]1C2` (stereo partly drawn) [Example 76, 7-(1R,2R,4S)-Bicyclo[2.2.1]hept-2-yl-2-[5-(3,8-diaza-bicyclo[3.2.1]octane-3-carbonyl)-pyridin-2-ylamino]-7H-pyrrolo[2,3-d]pyrimidine-6-carboxylic acid dimethylamide], the IC50 in test [1] was more than 15 µM; in test [2] (setting [5]) it was 0.021 µM; in test [3] (setting [8]), 0.216 µM; in test [3] (setting [9]), 0.16 µM.

For `CN(C)C(=O)c1cc2cnc(Nc3ccc(C(=O)N4CC5CCC(C4)N5)cn3)nc2n1C(C)(C)C` [Example 58, 7-tert-Butyl-2-[5-(3,8-diaza-bicyclo[3.2.1]octane-3-carbonyl)-pyridin-2-ylamino]-7H-pyrrolo[2,3-d]pyrimidine-6-carboxylic acid dimethylamide], the half-inhibitory concentration (IC50) is more than 15 µM in test [1] (setting [4]), 0.074 µM in test [2] (setting [5]), 0.288 to 0.338 µM in test [3] (setting [6]) and 0.105 to 0.188 µM in test [3] (setting [7]).

Regarding `CN(C)C(=O)c1cc2cnc(Nc3ccc(N4C[C@H]5CNC[C@H]5C4=O)cn3)nc2n1C1CCCC1` [Example 86, 7-cyclopentyl-N,N-dimethyl-2-(5-((3aR,6aS)-1-oxohexahydropyrrolo[3,4-c]pyrrol-2(1H)-yl)pyridin-2-ylamino)-7H-pyrrolo[2,3-d]pyrimidine-6-carboxamide], the half-maximal inhibitory concentration (IC50) is 20.6 µM in test [1] (setting [4]), 0.005 to 0.006 µM in test [2] (setting [5]), 0.013 to 0.014 µM in test [3] (setting [8]) and 0.008 to 0.017 µM in test [3] (setting [9]).

Take `CN(C)C(=O)c1cc2cnc(Nc3ccc(C(=O)N4CC5CCC(C4)O5)cn3)nc2n1C1CCCC1` [Example 74, 7-Cyclopentyl-2-[5-(8-oxa-3-aza-bicyclo[3.2.1]octane-3-carbonyl)-pyridin-2-ylamino]-7H-pyrrolo[2,3-d]pyrimidine-6-carboxylic acid dimethylamide]: the IC50 is more than 15 µM in test [1] (setting [10]), 0.067 µM in test [2] (setting [5]), 0.257 µM in test [3] (setting [8]) and 0.151 µM in test [3] (setting [9]).

Regarding `CC(C)[C@@H](N)C(=O)N1C2CCC1CN(C(=O)c1ccc(Nc3ncc4cc(C(=O)N(C)C)n(C5CCCC5)c4n3)nc1)C2` [Example 62, 2-{5-[8-((R)-2-Amino-3-methyl-butyryl)-3,8-diaza-bicyclo[3.2.1]octane-3-carbonyl]-pyridin-2-ylamino}-7-cyclopentyl-7H-pyrrolo[2,3-d]pyrimidine-6-carboxylic acid dimethylamide], the IC50 in test [1] (setting [4]) amounted to 39.9 µM; in test [2] (setting [5]), 0.01 µM; in test [3] (setting [6]), 0.723 µM; in test [3] (setting [7]), 0.291 µM.

On to `CN(C)C(=O)c1cc2cnc(Nc3ccc(N4C[C@@H]5CC[C@H](CC4=O)N5)cn3)nc2n1C1CCCC1` [Example 124, 7-Cyclopentyl-2-[5-((1S,6R)-4-oxo-3,9-diaza-bicyclo[4.2.1]non-3-yl)-pyridin-2-ylamino]-7H-pyrrolo[2,3-d]pyrimidine-6-carboxylic acid dimethylamide], for which the half-maximal inhibitory concentration (IC50) in test [1] (setting [4]) was more than 15 µM; in test [2] (setting [5]), 0.023 µM; in test [3] (setting [11]), 0.261 µM; in test [3] (setting [12]) it was 0.158 µM.

Turning to `CN(C)C(=O)c1cc2cnc(Nc3ccc(N4CCC5(CCNCC5)C4=O)cn3)nc2n1C1CCCC1` [Example 117, 7-cyclopentyl-N,N-dimethyl-2-(5-(1-oxo-2,8-diazaspiro[4.5]decan-2-yl)pyridin-2-ylamino)-7H-pyrrolo[2,3-d]pyrimidine-6-carboxamide], the 50% inhibitory concentration (IC50) in test [1] (setting [4]) is more than 15 µM; in test [2] (setting [5]) it was 0.007 to 0.009 µM; in test [3] (setting [11]), 0.051 to 0.082 µM; in test [3] (setting [12]), 0.04 to 0.067 µM.

Take `CN(C)C(=O)c1cc2cnc(Nc3ccc(C(=O)N4[C@@H]5CC[C@H]4C[C@H](O)C5)cn3)nc2n1C1CCCC1` [Example 43, 7-Cyclopentyl-2-[5-((1S,3S,5R)-3-hydroxy-8-aza-bicyclo[3.2.1]octane-8-carbonyl)-pyridin-2-ylamino]-7H-pyrrolo[2,3-d]pyrimidine-6-carboxylic acid dimethylamide]: the IC50 in test [1] (setting [4]) was more than 15 µM; in test [2] (setting [5]) it was 0.176 to 0.198 µM; in test [3] (setting [11]), 0.469 to 1.28 µM; in test [3] (setting [12]), 0.461 to 0.745 µM.

As for `CN(C)C(=O)c1cc2cnc(Nc3ccc(N4CC5CCC(CC4=O)N5)nn3)nc2n1C1CCCC1` (centres unmarked) [Example 79, 7-Cyclopentyl-2-[6-(4-oxo-3,9-diaza-bicyclo[4.2.1]non-3-yl)pyridazin-3-ylamino]-7H-pyrrolo[2,3-d]pyrimidine-6-carboxylic acid dimethylamide], the IC50 in test [1] (setting [10]) is more than 15 µM; in test [2], 0.042 µM; in test [3] (setting [8]), 0.117 µM; in test [3] (setting [9]) it was 0.03 µM.

`[2H]C([2H])([2H])N1C2CCC1CN(C(=O)c1ccc(Nc3ncc4cc(C(=O)N(C)C)n(C5CCCC5)c4n3)nc1)C2` [Example 63, 7-Cyclopentyl-2-[5-(8-methyl-d3-3,8-diaza-bicyclo[3.2.1]octane-3-carbonyl)-pyridin-2-ylamino]-7H-pyrrolo[2,3-d]pyrimidine-6-carboxylic acid dimethylamide]: the IC50 is more than 15 µM in test [1], 0.011 to 0.024 µM in test [2] (setting [5]), 0.04 to 0.242 µM in test [3] (setting [8]) and 0.034 to 0.078 µM in test [3] (setting [9]).

Turning to `CN(C)C(=O)c1cc2cnc(Nc3ccc(N4C[C@H]5CC[C@@H](CC4=O)N5C)cn3)nc2n1C1CCCC1` [Example 140, 7-cyclopentyl-N,N-dimethyl-2-(5-((1R,6S)-9-methyl-4-oxo-3,9-diazabicyclo[4.2.1]nonan-3-yl)pyridin-2-ylamino)-7H-pyrrolo[2,3-d]pyrimidine-6-carboxamide], the concentration for half-maximal inhibition (IC50) in test [1] (setting [4]) is more than 15 µM; in test [2] (setting [5]), 0.005 to 0.006 µM; in test [3] (setting [8]), 0.011 to 0.018 µM; in test [3] (setting [9]) it was 0.005 to 0.009 µM.

As for `CN(C)C(=O)c1cc2cnc(Nc3ccc(C(=O)N4[C@@H]5CNC[C@H]4COC5)cn3)nc2n1C1CCCC1` [Example 40, 2-(5-((1R,5S)-3-oxa-7,9-diazabicyclo[3.3.1]nonane-9-carbonyl)pyridin-2-ylamino)-7-cyclopentyl-N,N-dimethyl-7H-pyrrolo[2,3-d]pyrimidine-6-carboxamide], the IC50 in test [1] (setting [4]) is more than 15 µM; in test [2] (setting [5]), 0.036 to 0.052 µM; in test [3] (setting [6]), 0.051 to 0.222 µM; in test [3] (setting [7]), 0.04 to 0.099 µM.

In the case of `CN(C)C(=O)c1cc2cnc(Nc3ccc(C(=O)N4C[C@@H]5C[C@H]4CN5)cn3)nc2n1C1CCCC1` [Example 19, 7-Cyclopentyl-2-[5-((S,S)-2,5-diaza-bicyclo[2.2.1]heptane-2-carbonyl)-pyridin-2-ylamino]-7H-pyrrolo[2,3-d]pyrimidine-6-carboxylic acid dimethylamide], the IC50 in test [1] (setting [4]) was more than 15 µM; in test [2] (setting [5]), 0.005 to 0.008 µM; in test [3] (setting [8]) it was 0.064 to 0.116 µM; in test [3] (setting [9]), 0.054 to 0.055 µM.

Regarding `CN(C)C(=O)c1cc2cnc(Nc3ccc(C(=O)N4C[C@@H]5C[C@]5(N)C4)cn3)nc2n1C1CCCC1` (stereo in doubt) [Example 15, 2-[5-((S)-1-Amino-3-aza-bicyclo[3.1.0]hexane-3-carbonyl)-pyridin-2-ylamino]-7-cyclopentyl-7H-pyrrolo[2,3-d]pyrimidine-6-carboxylic acid dimethylamide], the half-inhibitory concentration (IC50) in test [1] (setting [4]) was more than 15 µM; in test [2] (setting [5]) it was 0.018 µM; in test [3] (setting [8]) it was 0.264 µM; in test [3] (setting [9]), 0.043 µM.

Take `CC(C)N1C2CCC1CN(C(=O)c1ccc(Nc3ncc4cc(C(=O)N(C)C)n(C5CCCC5)c4n3)nc1)C2` [Example 29, 7-cyclopentyl-2-(5-(8-isopropyl-3,8-diazabicyclo[3.2.1]octane-3-carbonyl)pyridin-2-ylamino)-N,N-dimethyl-7H-pyrrolo[2,3-d]pyrimidine-6-carboxamide]: the IC50 was more than 15 µM in test [1] (setting [4]), 0.014 to 0.017 µM in test [2] (setting [5]), 0.02 to 0.048 µM in test [3] (setting [6]) and 0.024 to 0.034 µM in test [3] (setting [7]).
